Data: ChEMBL document CHEMBL3124800, “HTS followed by NMR based counterscreening. Discovery and optimization of pyrimidones as reversible and competitive inhibitors of xanthine oxidase” (Bioorg Med Chem Lett, 2014)
Values after ≈ are worked out from the molar mass of the structure shown.

Assays:
[1] = Intrinsic clearance in human liver microsomes; format: ADME; conditions: read-out: CLH
[2] = Solubility of the compound in phosphate buffer at pH 7.4
[3] = Plasma concentration in potassium oxonate-induced hyperuricemic Sprague-Dawley rat model at 10 mg/kg, po measured after 2 hrs; format: ADME, organism-based; design: dose 10 mg/kg, route oral
[4] = system: Rattus norvegicus; experiment: Antihyperuricemic activity in potassium oxonate-induced hyperuricemic Sprague-Dawley rat model assessed as decrease of uric acid level in serum at 10 mg/kg, po measured after 1 hr relative to vehicle-treated control; format: functional; design: scale not given: the % may be the effect or the level left
[5] = system: Rattus norvegicus; experiment: Antihyperuricemic activity in potassium oxonate-induced hyperuricemic Sprague-Dawley rat model assessed as decrease of uric acid level in serum at 10 mg/kg, po measured after 2 hrs relative to vehicle-treated control; format: functional; design: scale not given: the % may be the effect or the level left
[6] = target: Xanthine dehydrogenase/oxidase (Homo sapiens, UniProt P47989)
Sequence of Xanthine dehydrogenase/oxidase (Homo sapiens, UniProt P47989) (P47989 whole entry): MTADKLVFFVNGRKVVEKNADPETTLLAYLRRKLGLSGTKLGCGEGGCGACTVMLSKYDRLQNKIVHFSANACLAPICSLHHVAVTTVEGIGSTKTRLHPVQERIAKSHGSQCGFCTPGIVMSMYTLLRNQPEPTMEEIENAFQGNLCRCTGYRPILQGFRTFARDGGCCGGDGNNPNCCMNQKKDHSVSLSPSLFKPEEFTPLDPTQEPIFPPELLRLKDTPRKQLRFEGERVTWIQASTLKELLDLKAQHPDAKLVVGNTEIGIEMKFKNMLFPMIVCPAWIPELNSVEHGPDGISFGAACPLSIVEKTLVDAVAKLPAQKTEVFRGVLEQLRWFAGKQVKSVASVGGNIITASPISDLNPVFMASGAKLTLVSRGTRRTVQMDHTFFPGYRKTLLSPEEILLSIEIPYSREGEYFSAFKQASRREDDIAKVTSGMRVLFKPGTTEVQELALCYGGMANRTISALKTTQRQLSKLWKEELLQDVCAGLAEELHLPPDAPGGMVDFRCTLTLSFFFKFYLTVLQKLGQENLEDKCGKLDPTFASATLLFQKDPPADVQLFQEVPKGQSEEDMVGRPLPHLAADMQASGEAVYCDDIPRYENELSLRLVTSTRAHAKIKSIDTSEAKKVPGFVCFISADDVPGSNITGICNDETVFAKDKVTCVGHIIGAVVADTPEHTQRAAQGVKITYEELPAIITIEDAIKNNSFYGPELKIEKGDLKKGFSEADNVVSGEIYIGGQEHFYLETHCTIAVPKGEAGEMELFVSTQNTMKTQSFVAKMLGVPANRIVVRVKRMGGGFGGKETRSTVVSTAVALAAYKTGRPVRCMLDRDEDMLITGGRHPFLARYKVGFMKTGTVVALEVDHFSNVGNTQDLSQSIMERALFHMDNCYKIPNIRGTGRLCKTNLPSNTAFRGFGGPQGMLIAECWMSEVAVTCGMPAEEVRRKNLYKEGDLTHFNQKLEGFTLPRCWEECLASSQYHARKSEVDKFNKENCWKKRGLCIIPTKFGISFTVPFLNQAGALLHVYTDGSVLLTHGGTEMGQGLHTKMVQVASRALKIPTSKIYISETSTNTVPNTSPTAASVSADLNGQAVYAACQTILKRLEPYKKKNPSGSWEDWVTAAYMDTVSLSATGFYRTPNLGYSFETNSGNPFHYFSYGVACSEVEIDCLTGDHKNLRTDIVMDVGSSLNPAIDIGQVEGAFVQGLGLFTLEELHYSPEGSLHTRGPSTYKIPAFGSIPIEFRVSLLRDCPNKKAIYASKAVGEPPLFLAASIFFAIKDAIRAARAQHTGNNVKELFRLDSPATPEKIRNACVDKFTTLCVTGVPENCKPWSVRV

[7] = target: Xanthine dehydrogenase/oxidase (Rattus norvegicus, UniProt P22985); experiment: Inhibition of rat xanthine oxidase
Sequence of Xanthine dehydrogenase/oxidase (Rattus norvegicus, UniProt P22985) (P22985 whole entry): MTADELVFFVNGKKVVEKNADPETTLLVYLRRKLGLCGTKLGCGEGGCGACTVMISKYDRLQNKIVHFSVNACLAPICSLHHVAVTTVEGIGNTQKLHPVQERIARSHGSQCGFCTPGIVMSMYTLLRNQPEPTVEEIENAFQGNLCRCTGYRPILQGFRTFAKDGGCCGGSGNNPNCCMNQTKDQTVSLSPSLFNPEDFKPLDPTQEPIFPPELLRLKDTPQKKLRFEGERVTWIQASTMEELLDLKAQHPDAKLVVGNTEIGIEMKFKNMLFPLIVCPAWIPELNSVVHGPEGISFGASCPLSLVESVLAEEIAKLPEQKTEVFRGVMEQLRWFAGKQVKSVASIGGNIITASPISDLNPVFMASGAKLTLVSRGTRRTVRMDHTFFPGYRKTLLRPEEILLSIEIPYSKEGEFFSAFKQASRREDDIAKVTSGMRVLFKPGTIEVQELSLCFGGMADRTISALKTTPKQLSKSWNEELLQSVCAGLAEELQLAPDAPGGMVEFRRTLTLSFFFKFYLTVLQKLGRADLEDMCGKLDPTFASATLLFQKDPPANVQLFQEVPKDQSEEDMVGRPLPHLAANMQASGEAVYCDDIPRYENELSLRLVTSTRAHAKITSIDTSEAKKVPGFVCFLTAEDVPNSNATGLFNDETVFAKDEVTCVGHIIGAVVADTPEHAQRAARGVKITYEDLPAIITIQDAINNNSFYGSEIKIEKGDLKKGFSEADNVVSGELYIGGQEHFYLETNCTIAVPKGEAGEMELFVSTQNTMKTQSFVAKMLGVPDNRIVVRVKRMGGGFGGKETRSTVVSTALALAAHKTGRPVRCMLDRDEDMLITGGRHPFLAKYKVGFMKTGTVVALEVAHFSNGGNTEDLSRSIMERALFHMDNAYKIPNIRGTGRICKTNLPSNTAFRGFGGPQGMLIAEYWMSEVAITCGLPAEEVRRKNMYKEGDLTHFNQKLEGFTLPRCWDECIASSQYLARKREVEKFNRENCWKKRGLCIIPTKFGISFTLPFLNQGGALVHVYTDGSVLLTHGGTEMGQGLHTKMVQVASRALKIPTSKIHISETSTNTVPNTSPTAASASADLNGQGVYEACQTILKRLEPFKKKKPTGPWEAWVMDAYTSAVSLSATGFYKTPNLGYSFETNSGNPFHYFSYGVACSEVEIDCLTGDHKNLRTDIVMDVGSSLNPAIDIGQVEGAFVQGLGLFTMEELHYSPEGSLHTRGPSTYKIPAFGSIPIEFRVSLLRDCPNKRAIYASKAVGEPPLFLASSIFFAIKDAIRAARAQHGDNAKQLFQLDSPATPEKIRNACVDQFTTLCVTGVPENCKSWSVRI

[8] = system: Hepatocyte; experiment: Intrinsic clearance in human hepatocytes assessed per million cells; format: ADME, cell-based
[9] = Apparent permeability across basolateral side to apical side in human Caco2 cells; conditions: Caco-2
[10] = Apparent permeability across apical side to basolateral side in human Caco2 cells; conditions: Caco-2
[11] = target: T1, Xanthine dehydrogenase/oxidase (Bos taurus, UniProt P80457); experiment: Reversible inhibition of bovine xanthine oxidase; conditions: cattle
T1 sequence (P80457 whole entry): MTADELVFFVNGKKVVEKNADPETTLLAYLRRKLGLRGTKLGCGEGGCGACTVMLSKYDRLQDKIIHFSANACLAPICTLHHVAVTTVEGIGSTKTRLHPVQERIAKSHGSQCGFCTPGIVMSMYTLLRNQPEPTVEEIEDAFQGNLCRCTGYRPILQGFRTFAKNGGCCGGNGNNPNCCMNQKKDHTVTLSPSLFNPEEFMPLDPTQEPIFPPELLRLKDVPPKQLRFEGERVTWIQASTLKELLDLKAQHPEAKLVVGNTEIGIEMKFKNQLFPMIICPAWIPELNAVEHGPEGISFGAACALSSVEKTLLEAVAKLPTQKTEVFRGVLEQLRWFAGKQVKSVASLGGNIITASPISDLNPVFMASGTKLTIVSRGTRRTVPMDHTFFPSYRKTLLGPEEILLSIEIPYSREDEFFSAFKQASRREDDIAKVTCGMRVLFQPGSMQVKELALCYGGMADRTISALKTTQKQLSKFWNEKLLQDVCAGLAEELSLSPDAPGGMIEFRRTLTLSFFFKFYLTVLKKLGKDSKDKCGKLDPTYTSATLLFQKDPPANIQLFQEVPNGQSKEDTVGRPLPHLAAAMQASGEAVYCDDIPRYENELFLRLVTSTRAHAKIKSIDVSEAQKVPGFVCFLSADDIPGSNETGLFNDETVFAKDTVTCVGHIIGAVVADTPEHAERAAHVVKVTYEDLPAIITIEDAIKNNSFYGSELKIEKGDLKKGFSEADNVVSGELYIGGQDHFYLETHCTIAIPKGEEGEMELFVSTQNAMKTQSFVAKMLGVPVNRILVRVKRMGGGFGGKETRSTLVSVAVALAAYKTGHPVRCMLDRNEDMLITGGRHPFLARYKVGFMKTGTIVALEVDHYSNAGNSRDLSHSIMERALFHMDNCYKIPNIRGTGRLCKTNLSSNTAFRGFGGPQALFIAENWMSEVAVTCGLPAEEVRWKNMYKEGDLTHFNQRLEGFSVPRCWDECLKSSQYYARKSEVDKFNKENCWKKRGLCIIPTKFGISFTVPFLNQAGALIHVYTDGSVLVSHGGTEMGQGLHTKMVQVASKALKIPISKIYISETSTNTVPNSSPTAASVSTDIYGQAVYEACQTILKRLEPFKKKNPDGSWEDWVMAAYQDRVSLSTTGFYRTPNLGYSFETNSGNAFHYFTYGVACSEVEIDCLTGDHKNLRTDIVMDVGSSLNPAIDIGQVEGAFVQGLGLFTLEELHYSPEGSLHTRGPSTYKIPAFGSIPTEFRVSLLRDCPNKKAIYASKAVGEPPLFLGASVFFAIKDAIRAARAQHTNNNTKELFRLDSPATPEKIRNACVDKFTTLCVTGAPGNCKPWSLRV

[12] = target: T1, Xanthine dehydrogenase/oxidase; experiment: Competitive inhibition of bovine xanthine oxidase
[13] = system: Plasma; experiment: Antihyperuricemic activity in potassium oxonate-induced hyperuricemic Sprague-Dawley rat model assessed as decrease of uric acid level in serum at 30 mg/kg, po measured after 2 hrs relative to vehicle-treated control; format: functional; design: scale not given: the % may be the effect or the level left
[14] = system: Rattus norvegicus; experiment: Antihyperuricemic activity in potassium oxonate-induced hyperuricemic Sprague-Dawley rat model assessed as decrease of uric acid level in serum at 30 mg/kg, po measured after 1 hr relative to vehicle-treated control; format: functional; design: scale not given: the % may be the effect or the level left
[15] = Oral bioavailability in Han Wistar rat at 6 umol/kg; format: ADME, organism-based; conditions: in vivo
[16] = Cmax in Han Wistar rat at 6 umol/kg, po; format: ADME, organism-based; design: dose 6 umol/kg, route oral; conditions: in vivo
[17] = system: Rattus norvegicus; experiment: Volume of distribution at steady state in Han Wistar rat at […]; format: ADME, organism-based; conditions: in vivo
[18] = Half life in Han Wistar rat at 1 umol/kg, iv; format: ADME, organism-based; conditions: in vivo
[19] = Clearance in Han Wistar rat at 1 umol/kg, iv; format: ADME, organism-based; conditions: in vivo
[20] = target: T1, Xanthine dehydrogenase/oxidase; experiment: Inhibition of bovine xanthine oxidase

microsomal CLint [1]	solubility [2]	Papp B→A [9]	Papp A→B [10]	SMILES	other results
16 µL/min/mg	–	–	–	CC(C)COc1ccc(-c2nc(N)[nH]c(=O)c2Cl)cc1C#N	–
7.9 µL/min/mg	140 µM (≈ 39.8 µg/mL)	–	–	CC(C)COc1ccc(-c2cc(=O)[nH]c(N)n2)cc1C#N	–
1.7 µL/min/mg	93 µM (≈ 31.1 µg/mL)	25.6 ×10⁻⁶ cm/s	0.2 ×10⁻⁶ cm/s	N#Cc1cc(-c2nc(N)[nH]c(=O)c2Cl)ccc1OCCCCO	–
1.7 µL/min/mg	45 µM (≈ 13.8 µg/mL)	31 ×10⁻⁶ cm/s	0.1 ×10⁻⁶ cm/s	N#Cc1cc(-c2nc(N)[nH]c(=O)c2C#N)ccc1OCC1CC1	–
4.1 µL/min/mg	14 µM (≈ 4.33 µg/mL)	30 ×10⁻⁶ cm/s	0.1 ×10⁻⁶ cm/s	CC(C)COc1ccc(-c2nc(N)[nH]c(=O)c2C#N)cc1C#N	bioavailability [15]: 5.5%; Cmax [16]: 70 nM; Vdss [17]: 2.5 L/kg; half-life [18]: 1140 min; clearance [19]: 1.8 mL/min/kg
8.5 µL/min/mg	1.2 µM (≈ 0.423 µg/mL)	23 ×10⁻⁶ cm/s	1.7 ×10⁻⁶ cm/s	CC(C)COc1ccc(-c2nc(N)[nH]c(=O)c2C#N)cc1C(F)(F)F	–
5.3 µL/min/mg	83 µM (≈ 29.9 µg/mL)	35 ×10⁻⁶ cm/s	2.1 ×10⁻⁶ cm/s	Cc1cc(-c2nc(N)[nH]c(=O)c2Cl)cc(C#N)c1OCC1CCOC1 (stereo unspecified)	–
3.6 µL/min/mg	37 µM (≈ 12 µg/mL)	–	–	CNc1nc(-c2ccc(OCC(C)C)c(C#N)c2)c(C#N)c(=O)[nH]1	–
3.4 µL/min/mg	41 µM (≈ 14.2 µg/mL)	24 ×10⁻⁶ cm/s	0.2 ×10⁻⁶ cm/s	N#Cc1cc(-c2nc(N)[nH]c(=O)c2Cl)ccc1OCC1CCOC1 (stereo unspecified)	–
7.5 µL/min/mg	24 µM (≈ 9.35 µg/mL)	69 ×10⁻⁶ cm/s	8.4 ×10⁻⁶ cm/s	Nc1nc(-c2ccc(OCC3CCOC3)c(C(F)(F)F)c2)c(Cl)c(=O)[nH]1 (stereo unspecified)	bioavailability [15]: 33%; Cmax [16]: 270 nM; Vdss [17]: 5.7 L/kg; half-life [18]: 600 min; clearance [19]: 15 mL/min/kg

The remaining lines, values behind:

SMILES	microsomal CLint [1]	solubility [2]	Papp B→A [9]	Papp A→B [10]	other results
CC(C)(C)COc1ccc(-c2cc(=O)[nH]c(N)n2)cc1	6.9 µL/min/mg	3.1 µM (≈ 0.847 µg/mL)	–	–	–
N#Cc1cc(-c2cc(=O)[nH]c(N)n2)cc(C(F)(F)F)c1	0.2 µL/min/mg	430 µM (≈ 120 µg/mL)	–	–	–
Cc1nc(-c2ccc(OCC(C)C)c(C#N)c2)sc1C(=O)O [FEBUXOSTAT]	–	–	–	–	concentration at 2 h [3]: 8.7 µM; Activity [4]: 78%; Activity [5]: 75%; IC50 [6]: 0.00126 µM; IC50 [7]: 3.98 nM
Nc1nc(-c2ccccc2)c(Br)c(=O)[nH]1 [BROPIRIMINE]	–	–	–	–	IC50 [6]: 1 µM
CC(=O)Nc1ccc(-c2cc(=O)[nH]c(N)n2)cc1	–	–	–	–	CLH [8]: 2.7 µL/min/1e6 cells
Nc1nc(-c2cccc(OC(F)(F)F)c2)cc(=O)[nH]1	3.2 µL/min/mg	330 µM (≈ 89.5 µg/mL)	–	–	–
CC(C)(C)COc1ccc(-c2nc(N)[nH]c(=O)c2C#N)cc1OC(F)(F)F	36 µL/min/mg	6 µM (≈ 2.29 µg/mL)	4.1 ×10⁻⁶ cm/s	0.4 ×10⁻⁶ cm/s	–
O=c1[nH]ccc2nc(-c3cccc(C(F)(F)F)c3)cn12	–	–	–	–	inhibition (INH) [11]: Active; IC50 [12]: 398 nM
Nc1nc(-c2ccc(OCC3CCOC3)cc2)cc(=O)[nH]1 (stereo unspecified)	21 µL/min/mg	58 µM (≈ 16.7 µg/mL)	–	–	–
N#Cc1c(-c2ccc(OCC3CCOC3)c(OC(F)(F)F)c2)nc(N)[nH]c1=O (stereo unspecified)	21 µL/min/mg	86 µM (≈ 34.1 µg/mL)	29 ×10⁻⁶ cm/s	0.1 ×10⁻⁶ cm/s	–
Oc1ncnc2[nH]ncc12 [ALLOPURINOL]	–	–	–	–	Activity [13]: 94%; Activity [14]: 87%
Nc1nc(-c2ccc(OCC3CCOC3)c(OC(F)(F)F)c2)c(Cl)c(=O)[nH]1 (stereo unspecified)	18 µL/min/mg	45 µM (≈ 18.3 µg/mL)	74 ×10⁻⁶ cm/s	6.4 ×10⁻⁶ cm/s	concentration at 2 h [3]: 0.37 µM; Activity [4]: 55%; Activity [5]: 54%; bioavailability [15]: 22%; Cmax [16]: 80 nM; Vdss [17]: 13 L/kg; half-life [18]: 792 min; clearance [19]: 35 mL/min/kg; IC50 [7]: 7.94 nM
Cc1cc(C#N)cc(-c2cc(=O)[nH]c(N)n2)c1	1.2 µL/min/mg	350 µM (≈ 79.2 µg/mL)	–	–	–
CC(C)COc1ccc(-c2cc(=O)[nH]c(N)n2)cc1	42 µL/min/mg	23 µM (≈ 5.96 µg/mL)	–	–	–
Nc1nc(-c2ccc(OCc3ccccc3)cc2)cc(=O)[nH]1	–	< 1 µM	–	–	–
Nc1nc(-c2cccc(C(F)(F)F)c2)cc(=O)[nH]1	–	36 µM (≈ 9.19 µg/mL)	–	–	–
CS(=O)(=O)Nc1nc(-c2ccccc2)cc(=O)[nH]1	–	–	–	–	IC50 [6]: > 100 µM
CC(=O)Nc1nc(-c2ccccc2)cc(=O)[nH]1	–	–	–	–	IC50 [6]: > 100 µM
Cn1c(N)nc(-c2ccccc2)cc1=O	–	–	–	–	IC50 [6]: > 100 µM
Nc1nc(-c2ccc(OCCCCO)cc2)cc(=O)[nH]1	6.8 µL/min/mg	95 µM (≈ 26.2 µg/mL)	–	–	–
COc1ccc(-c2cnc3nc[nH]c(=O)c3n2)cc1	–	–	–	–	IC50 [6]: 15.8 µM
c1ccc(-c2nn3c(-c4cnccn4)nnc3s2)cc1	–	–	–	–	IC50 [20]: 79.4 nM
